{"source": "patent US20140199714A1", "about": "“METHOD FOR DETECTING CANCER CELLS METASTASIZING INTO SENTINEL LYMPH NODE” (SHINSHU UNIVERSITY, priority 2008, published 2014)", "type_in_all_cases": "cell-based", "key": {"E-selectin on human LECs": {"system": "E-selectin on human LECs", "experiment": "Immunohistochemical expression of E-selectin on cultured human LECs", "protocol": "(§1) Using an indirect immunohistochemical technique, the inventors examined the effects of the supernatants of culture medium of two kinds of carcinoma cells, MDA-MB-231 and MCF-7, on the expression of adhesion molecules such as E-selectin, P-selectin, vascular cell adhesion molecule (VCAM)-1, and intercellular adhesion molecule (ICAM)-1 on the human LECs. The carcinoma cells were plated in DMEM/F12 with 10% FBS, which was replaced the following day with DMEM/F12 with 3% FBS, and then collected after overnight culture. The collected solution was centrifuged at 2,000 rpm for 5 min. at 4° C. To examine the effects of the supernatants on the expression of the adhesion molecules on the human LECs, 1 mL of each collected solution was added to starvation culture medium, EBM-2 with 3% FBS of the human LECs, and then stimulated for 48 hrs. on the cells. In some experiments, the supernatant solutions at different concentrations (1/100 or 1/10,000 dilution) were constructed with appropriate volumes of DMEM/F12 with 3% FBS.\n(§2) Indirect immunohistochemical studies were performed on the cultured LECs seeded or glass slides coated with type I collagen, and then the cells were fixed with 3.3% formalin in phosphate-buffered saline solution (PBS), for 20 min. at room temperature. The cells were washed three times with PBS, and then incubated overnight at 4° C. with primary polyclonal human antisera to E-selectin/CD62E (dilution 10 μg/mL, available from R&D Systems, US), P-selectin/CD62P (dilution 10 μg/mL, available from R&D Systems, US), VCAM-1/CD106 (dilution 10 μg/mL, available from R&D Systems, US), and ICAM-1/CD54 (dilution 10 μg/mL, available from R&D Systems, US).\n(§3) Before primary staining, the cultured cells were permeabilized with 0.1% TRITON-X. After washing three times in PBS, the cells were incubated for 1 hr. at room temperature with 1:100 diluted ALEXA FLUOR 488 donkey anti-mouse IgG (available from Invitrogen, US). The nuclei of cultured cells were counter-stained and mounted with PROLONG GOLD antifade reagent with 4′-6-diamidine-2-phenylindole (DAPI) (available from Molecular Probes, US), examined by a fluorescent microscope (Leica, Switzerland), and photographed.\n(§4) Immunohistochemistry was performed on the cultured human LECs or the fresh-frozen SLNs isolated from the breast cancer patients. In brief, the cultured LECs were fixed with 10% formalin in the phosphate-buffered saline solution (PBS) at room temperature. The cells were incubated for 4 hrs. at room temperature with primary polyclonal human antisera platelet-endothelial cell adhesion molecule (PECAM)-1 (dilution 1:100, available from BD Biosciences, US), lymphatic vessel endothelial hyaluronan receptor (LYVE)-1 (dilution 1:50, available from RELIATech, Germany), PROX-1 (dilution 1:50, available from AngioBio, US), podoplanin (dilution 1:50, available from AngioBio, US), vascular endothelium growth factor receptor 3 (VEGF R3) (dilution 1:50, available from Santa Cruz, US), E-selectin/CD62E (dilution 1:50, available from R&D systems, US), P-selectin/CD62P (dilution 1:50, available from R&D systems, US), vascular cell adhesion molecule (VCAM)-1/CD106 (dilution 1:50, available from R&D systems, US), and intercellular adhesion molecule (ICAM)-1/CD54 (dilution 1:50, available from R&D systems, US). Before the staining, permeabilization of the cultured cells with 0.1% TRITON-X was performed. Then, the cells were stained using the following antibodies: ALEXA FLUOR 488 chicken anti-rabbit IgG or ALEXA FLUOR 488 donkey anti-mouse IgG (available from Invitrogen, US). The nuclei of the cultured cells were counter-stained and mounted with ProLong Gold antifade reagent with 4′-6-diamidine-2-phenylindole (DAPI) (available from Molecular Probes, US). The cultured cells were examined by a fluorescent microscope (available from Leica, Germany) and photographed. […]"}, "VCAM-1 on human LECs": {"system": "VCAM-1 on human LECs", "experiment": "Immunohistochemical expression of VCAM-1 on cultured human LECs", "protocol": "as §1, §2, §3, §4"}, "[1]": {"system": "attachment of MCF-7 carcinoma cells to human LECs", "experiment": "In vitro human LECs attachment assay (CCL2), MCF-7", "conditions": "18 hrs.-stimulation of 10 ng/mL CCL2 vs negative control with DMEM/F12; p<0.01", "protocol": "The human LECs were plated to form a monolayer on type I collagen-coated 35 mm plates and incubated to confluence in 5% O2, 5% CO2, and 90% N2 at 37° C. The LECs were kept in serum-starved medium containing EBM-2 with 3% FBS. Selected plates were treated with 10 ng/mL CCL2 for 18 hrs. In some experiments, the plates were stimulated by the serum-starved medium pretreated with neutralization of 10 ng/mL CCL2 with 1.0 μg/mL CCL2 specific antibody.\nIn some experiments, the plates were also treated with anti-human ICAM-1 antibody (available from R&D systems, US) for 30 min. after the 18 hrs. treatment with 10 ng/mL CCL2.\nThe two kinds of the breast carcinoma cells such as MDA-MB-231 and MCF-7 stained with PKH26 fluorescent dye (available from SIGMA, US) were then plated at 1×10^5 cells per plate and incubated for 30 min. at 37° C. Unbound cells were removed by aspiration, and the plates were washed with EBM-2 three times. The attachment of the carcinoma cells was quantified by counting the number of cells under ×100 magnification using a Leica microscope."}, "[2]": {"system": "ICAM-1 protein in human LECs", "experiment": "Western blot analysis of ICAM-1 protein in human LECs", "conditions": "18 hrs.-stimulation of 10 ng/mL CCL2", "protocol": "Western blot analysis was performed to quantitatively evaluate the CCL2-mediated ICAM-1 expression on the cultured human LECs. The cells were dissolved in M-PER (Mammalian Protein Extraction Reagent available from Thermo Fisher Scientific Inc., US) and centrifuged at 14,000 r.p.m. for 10 min. A 15 μg sample of the total cell lysate was resolved in SDS sample buffer for sodium dodecyl sulfate-polyacrylamide gel electrophoresis (SDS-PAGE) and transferred to an polyvinylidene difluoride (PVDF) membrane (available from Atto Corporation, Japan), where it was incubated for 45 min The membrane was probed with the anti-ICAM-1 antiserum (dilution 1:1000, available from Cell Signaling Technology Inc., US) and then incubated with anti-rabbit immunoglobulin G (IgG) horseradish peroxidase conjugated antibody. The same membrane was reprobed with monoclonal anti-actin antibody (available from Santa Cruz Biotechnology Inc., US) and then visualized with an ECL-Western blotting detection system (available from Amersham Bioscience Inc., UK)."}, "[3]": {"conditions": "4 hrs-stimulation of 10 ng/mL CCL2"}, "[4]": {"conditions": "18 hrs.-stimulation with 10 ng/mL chemokine"}}, "data": [{"substance": "CCL2: chemokine CCL2", "values": [{"measurement": "immunoreaction of anti-E-selectin", "setting": "E-selectin on human LECs; 10 ng/mL CCL2, stimulation time increased to 18 hrs. and 48 hrs.", "value": "markedly decreased"}, {"measurement": "staining with E-selectin antiserum on LECs", "setting": "E-selectin on human LECs; [3]", "value": "Slight staining"}, {"measurement": "expression of E-selectin on human LECs", "setting": "E-selectin on human LECs; [4]", "value": "Little or no expression"}, {"measurement": "expression of VCAM-1 on human LECs", "setting": "VCAM-1 on human LECs; [3]", "value": "no or little expression"}, {"measurement": "expression of VCAM-1 on human LECs", "setting": "VCAM-1 on human LECs; [4]", "value": "Little or no expression"}, {"measurement": "in vitro attachment of MCF-7 to human LECs", "setting": "[1]", "value": "significant increase"}, {"measurement": "expression of ICAM-1 protein", "setting": "[2]", "value": "significant expression"}]}]}
